Results: patent US20110212892A1, “AGENT FOR TREATMENT OF DIABETES” (Dainippon Sumitomo Pharma Co., Ltd., priority 2008, published 2011)

Tests used:
Type in all cases: in vivo
C57BL/KsJ-db/db mice [1] = assay: Blood insulin after glibenclamide administration in db/db mice repeatedly given Compound A (Example 1-1); conditions: vehicle or Compound A 30 mg/kg once a day 15 days, next day vehicle or glibenclamide 10 mg/kg by gavage, mean ± SD, n = 8
Description: The antidiabetic action resulting from the combination of an insulin secretagogue (SU drug) and Compound A was studied by using C57BL/KsJ-db/db mice (hereinafter, referred to as “db/db mice”) (9 weeks old, male, CLEA Japan, Inc.) as a model of type 2 diabetes. The db/db mice were allocated to 4 groups (8 mice/group), and each group was put into a cage provided with feed. Among the 4 groups, a vehicle (0.5% methylcellulose solution) was administered to Groups 1 and 2 by gavage once a day for 15 days, and Compound A (30 mg/kg) was administered to Groups 3 and 4 under the same condition as Groups 1 and 2. On the next day after the last administration, the vehicle was administered to Groups 1 and 3, and glibenclamide (10 mg/kg) was administered to Groups 2 and 4, both by gavage; then the feed were removed from the cages and the changes in blood glucose levels were studied in each group.
As a result, blood insulin level was higher in Group 4 (i.e. repeatedly administered with Compound A and then with glibenclamide) than in Groups 1 and 2 (i.e. repeatedly administered with the vehicle).

C57BL/KsJ-db/db mice [2] = assay: Blood glucose after glibenclamide administration in db/db mice repeatedly given Compound A (Example 1-1); conditions: for Blood glucose level after the glibenclamide administration (relative value when blood glucose level at 0 hr is 100%) / Area under the curve of blood glucose level after the glibenclamide administration (relative value when blood glucose level at 0 hr is 100%): vehicle or Compound A 30 mg/kg once a day 15 days, next day vehicle or glibenclamide 10 mg/kg by gavage, n = 8; for Blood glucose level after the glibenclamide administration (relative value when blood glucose level at 0 hr is 100%): feed removed; for Blood glucose level after the glibenclamide administration (relative value when blood glucose level at 0 hr is 100%) / Area under the curve of blood glucose level after the glibenclamide administration (relative value when blood glucose level at 0 hr is 100%) / Blood glucose level before the glibenclamide administration: mean ± SD; for Decrease of blood glucose levels after glibenclamide/vehicle administration (in words): vehicle or Compound A 30 mg/kg 15 days, then vehicle or glibenclamide 10 mg/kg; for Blood glucose level before the glibenclamide administration: Compound A 30 mg/kg by gavage once a day for 15 days, next day, before glibenclamide/vehicle, n = 8, 30 mg/kg
Description: The antidiabetic action resulting from the combination of an insulin secretagogue (SU drug) and Compound A was studied by using C57BL/KsJ-db/db mice (hereinafter, referred to as “db/db mice”) (9 weeks old, male, CLEA Japan, Inc.) as a model of type 2 diabetes. The db/db mice were allocated to 4 groups (8 mice/group), and each group was put into a cage provided with feed. Among the 4 groups, a vehicle (0.5% methylcellulose solution) was administered to Groups 1 and 2 by gavage once a day for 15 days, and Compound A (30 mg/kg) was administered to Groups 3 and 4 under the same condition as Groups 1 and 2. On the next day after the last administration, the vehicle was administered to Groups 1 and 3, and glibenclamide (10 mg/kg) was administered to Groups 2 and 4, both by gavage; then the feed were removed from the cages and the changes in blood glucose levels were studied in each group. […]

db/db mice [3] = assay: HbA1c change to Day 33 in db/db mice given agents in feed (Example 1-2); conditions: start of experiment to Day 33, feed with 0.02 (w/w) % Compound A and/or 0.06 (w/w) % sitagliptin; for Amounts of change in HbA1c before and after treatment: mean ± SD, n = 8
From the text: (§1) The antidiabetic action resulting from the combination of an insulin secretagogue (DPP-4 inhibitor) and Compound A was studied by using db/db mice (8 weeks old, male, CLEA Japan, Inc.). The db/db mice were allocated to 4 groups (8 mice/group). The mice in Group 1 were given powdered feed (control), Group 2 were given powdered feed containing 0.02 (w/w) % of Compound A, Group 3 were given powdered feed containing 0.06 (w/w) % of sitagliptin, and Group 4 were given powdered feed containing 0.02 (w/w) % of Compound A and 0.06 (w/w) % of sitagliptin. In addition, the powdered feed mentioned-above were all the same (i.e. trade name: CE-2, CLEA Japan, Inc.). An oral glucose tolerance test was performed on Day 28. To be more specific, on the day before the test, the mice were fasted overnight; and on the test day, 2 g/kg of glucose was administered by gavage to study the changes in blood glucose levels. Glycosylated hemoglobin (hereinafter, referred to as “HbAlc”) was measured on Day 33.

db/db mice [4] = assay: Oral glucose tolerance test on Day 28 in db/db mice given agents in feed (Example 1-2); conditions: feed with 0.02 (w/w) % Compound A and/or 0.06 (w/w) % sitagliptin; for Blood glucose level after the glucose load on Day 28 / Area under the curve of blood glucose level after the glucose load on Day 28: OGTT 2 g/kg glucose, mean ± SD, n = 8; for Blood glucose level after the glucose load on Day 28: fasted overnight; for Area under the curve of blood glucose level in oral glucose tolerance test versus control (in words): Day 28
From the text: as §1

db/db mice [5] = assay: HbA1c change Day 1 to Day 15 in db/db mice, Compound A and metformin (Example 1-3); conditions: Compound A 30 mg/kg and/or metformin 300 mg/kg by gavage once a day for 14 days
Description: (§2) The antidiabetic action resulting from the combination of an insulin-sensitizing drug and a biguanide was studied by using db/db mice (8 weeks old, male, CLEA Japan, Inc.). The db/db mice were allocated to 4 groups (8 mice/group). Among the 4 groups, a vehicle (0.5% methylcellulose solution) was administered to Group 1 by gavage once a day for 14 days from the day of grouping (Day 1); Compound A (30 mg/kg) was administered to Group 2, metformin (300 mg/kg) was administered to Group 3, and Compound A (30 mg/kg) and metformin (300 mg/kg) were administered to Group 4 under the same condition as Group 1. Blood glucose and HbAlc levels were measured on Day 11 and Day 15, respectively.

db/db mice [6] = assay: Blood glucose level on Day 11 in db/db mice, Compound A and metformin (Example 1-3); conditions: Compound A 30 mg/kg and/or metformin 300 mg/kg by gavage once a day for 14 days; for Blood glucose level: Day 11, mean ± SD, n = 8, in mg/dL (unit assumed)
Description: as §2

SMILES | Blood insulin level after the glibenclamide administration (relative value when insulin level at 0 hr is 100%) (C57BL/KsJ-db/db mice [1]; 1 hr) [%] | Blood insulin level after the glibenclamide administration (relative value when insulin level at 0 hr is 100%) (C57BL/KsJ-db/db mice [1]; 2 hr) [%] | Area under the curve of blood insulin level after the glibenclamide administration (relative value when insulin level at 0 hr is 100%) (C57BL/KsJ-db/db mice [1]) [% · hr] | Blood glucose level after the glibenclamide administration (relative value when blood glucose level at 0 hr is 100%) (C57BL/KsJ-db/db mice [2]; 1 hr) [%] | Blood glucose level after the glibenclamide administration (relative value when blood glucose level at 0 hr is 100%) (C57BL/KsJ-db/db mice [2]; 2 hr) [%] | Blood glucose level after the glibenclamide administration (relative value when blood glucose level at 0 hr is 100%) (C57BL/KsJ-db/db mice [2]; 4 hr) [%] | Blood glucose level after the glibenclamide administration (relative value when blood glucose level at 0 hr is 100%) (C57BL/KsJ-db/db mice [2]; 6 hr) [%] | Decrease of blood glucose levels after glibenclamide/vehicle administration (in words) (C57BL/KsJ-db/db mice [2]) | Area under the curve of blood glucose level after the glibenclamide administration (relative value when blood glucose level at 0 hr is 100%) (C57BL/KsJ-db/db mice [2]) [% · hr] | Change in HbA1c versus control (in words) (db/db mice [3]) | Amounts of change in HbA1c before and after treatment (db/db mice [3]) [%] | Blood glucose level after the glucose load on Day 28 (db/db mice [4]; 0 min) [mg/dL] | Blood glucose level after the glucose load on Day 28 (db/db mice [4]; 10 min) [mg/dL] | Blood glucose level after the glucose load on Day 28 (db/db mice [4]; 30 min) [mg/dL] | Blood glucose level after the glucose load on Day 28 (db/db mice [4]; 60 min) [mg/dL] | Blood glucose level after the glucose load on Day 28 (db/db mice [4]; 90 min) [mg/dL] | Blood glucose level after the glucose load on Day 28 (db/db mice [4]; 120 min) [mg/dL] | Area under the curve of blood glucose level in oral glucose tolerance test versus control (in words) (db/db mice [4]) | Area under the curve of blood glucose level after the glucose load on Day 28 (db/db mice [4]) [mg·min/dL] | Amount of change in HbA1c (db/db mice [5]) | also measured
COc1ccc(Cl)cc1C(=O)NCCc1ccc(S(=O)(=O)NC(=O)NC2CCCCC2)cc1 [Glibenclamide, glibenclamide, reference compound] | 75.1 ± 25.1 | 83.3 ± 21.4 | 166.7 ± 31.5 | 96.2 ± 7.7 | 91.3 ± 5.9 | 82.9 ± 12.7 | 80.9 ± 12.1 | no decrease in blood glucose levels | 530.0 ± 35.1 |  |  |  |  |  |  |  |  |  |  |  | 
N[C@@H](CC(=O)N1CCn2c(nnc2C(F)(F)F)C1)Cc1cc(F)c(F)cc1F [Sitagliptin, sitagliptin, reference compound] |  |  |  |  |  |  |  |  |  | A difference was not observed | 1.68 ± 0.51 | 167 ± 15 | 542 ± 81 | 588 ± 125 | 510 ± 95 | 455 ± 100 | 408 ± 107 | significant difference was not observed | 57680 ± 10679 |  | 
Cc1ccc(C(=O)c2cccn2C/C=C/c2ccc(COC(C)(C)C(=O)O)cc2)cc1 [Compound A, 2-methyl-2-[(4-{(1E)-3-[2-(4-methylbenzoyl)-1H-pyrrol-1-yl]prop-1-en-1-yl}benzyl)oxy]propanoic acid] | 55.9 ± 15.8 | 61.6 ± 17.3 | 136.8 ± 17.7 | 100.2 ± 10.2 | 96.1 ± 14.2 | 93.8 ± 15.9 | 93.6 ± 14.1 | did not | 575.6 ± 73.0 | A difference was not observed | 1.28 ± 0.53 | 146 ± 33 | 500 ± 62 | 633 ± 57 | 566 ± 41 | 457 ± 74 | 412 ± 82 | significant difference was not observed | 59692 ± 4741 | 0.93 ± 0.28 | Blood glucose level (Day 11) and amount of HbA1c change (Day 1 to Day 15); single agents versus vehicle, combination versus single agents (in words) (db/db mice [6]): significant decrease of blood glucose level and amount of HbAlc change; Blood glucose level (db/db mice [6]): 321.9 ± 43.5; Blood glucose level before the glibenclamide administration (C57BL/KsJ-db/db mice [2]; group later given glibenclamide): 323.4 ± 75.7 mg/dL; Blood glucose level before the glibenclamide administration (C57BL/KsJ-db/db mice [2]; group later given vehicle): 332.1 ± 90.8 mg/dL
CN(C)C(=N)N=C(N)N [Metformin, metformin, reference compound] |  |  |  |  |  |  |  |  |  |  |  |  |  |  |  |  |  |  |  | 1.09 ± 0.16 | Blood glucose level (Day 11) and amount of HbA1c change (Day 1 to Day 15); single agents versus vehicle, combination versus single agents (in words) (db/db mice [6]): significant decrease of blood glucose level and amount of HbAlc change; Blood glucose level (db/db mice [6]): 323.5 ± 66.3
